Reference: patent US20230146455A1, “TREATMENT OF INFLAMMATORY DISEASES WITH PEPTIDES AND PHARMACEUTICAL COMPOSITIONS” (Yuyu Pharma, Inc., priority 2020, published 2023)
Values joined by “and” are separate entries in the source; they are usually repeats but may differ in a detail not shown here. Equal entries are not always repeated. Where a SMILES comes first, the peptide text is derived from it. [ ]: non-standard residue; d: D form. Hyp = O=C(O)[C@@H]1C[C@@H](O)CN1

Tested on: VEGF-A
Test: Example 9 Luminex, LPS hPBMCs: VEGF-A
Type: cell-based, human
Experimental: Treatment Human PBMCs were pretreated with YY-101, YDE-011 and YDE-043 or reference compound; Xiidra® at various concentration (ranging from 1 nM to 100 uM) for 2 h before stimulation. An equal volume of 0.5% DMSO was used as a vehicle control. Then, the cells were treated with LPS at 5 ug/ml. The supernatants from treated cells were harvested at 24 h and placed in a 96 well for Luminex cytokine & chemokine profiling using a Luminex 200 multiplex assay (Luminex; R&D system, USA).
The main study arm with triplicate wells per group in a 24-well plate: • 1. Blank • 2. PBMC: 0.5% DMSO • 3. PBMC+LPS (5 ug/ml) • 4. PBMC+YY-101 100 uM • 5. PBMC+YY-101 10 uM • 6. PBMC+YY-101 1 uM • 7. PBMC+YY-101 0.1 uM • 8. PBMC+YY-101 0.01 uM • 9. PBMC+LPS (5 ug/ml)+Xiidra®100 uM • 10. PBMC+LPS (5 ug/ml)+Xiidra® 10 uM • 11. PBMC+LPS (5 ug/ml)+Xiidra® 1 uM • 12. PBMC+LPS (5 ug/ml)+Xiidra®0.1 uM • 13. PBMC+LPS (5 ug/ml)+Xiidra®0.01 uM • 14. PBMC+LPS (5 ug/ml)+Xiidra®0.001 uM • 15. PBMC+LPS (5 ug/ml)+YY-101 100 uM • 16. PBMC+LPS (5 ug/ml)+YY-101 10 uM • 17. PBMC+LPS (5 ug/ml)+YY-101 1 uM • 18. PBMC+LPS (5 ug/ml)+YY-101 0.1 uM • 19. PBMC+LPS (5 ug/ml)+YY-101 0.01 uM • 20. PBMC+LPS (5 ug/ml)+YY-101 0.001 uM • 21. PBMC+LPS (5 ug/ml)+YDE-011 100 uM • 22. PBMC+LPS (5 ug/ml)+YDE-011 10 uM • 23. PBMC+LPS (5 ug/ml)+YDE-011 1 uM • 24. PBMC+LPS (5 ug/ml)+YDE-011 0.1 uM • 25. PBMC+LPS (5 ug/ml)+YDE-011 0.01 uM • 26. PBMC+LPS (5 ug/ml)+YDE-011 0.001 uM • 27. PBMC+LPS (5 ug/ml)+YDE-043 100 uM • 28. PBMC+LPS (5 ug/ml)+YDE-043 10 uM • 29. PBMC+LPS (5 ug/ml)+YDE-043 1 uM • 30. PBMC+LPS (5 ug/ml)+YDE-043 0.1 uM • 31. PBMC+LPS (5 ug/ml)+YDE-043 0.01 uM • 32. PBMC+LPS (5 ug/ml)+YDE-043 0.001 uM
Multiplex assay was used to measure 30 cytokines and chemokines. The 1:2, 1:10 and 1:200 diluted cell supernatant and serial dilution of the standard were dispensed into a 96 well plate at 50 ul/well. Then, the pre-mixed cocktail of antibody-coated magnetic beads was dispensed at 50 ul/well and incubated at room temperature for 2 h in a horizontal orbital microplate shaker at 800±500 rpm. The beads were washed using a magnetic device to prevent loss. The biotin-antibody was dispensed in 50 ul of each well and incubated at room temperature for 1 h in a shaker at 800±500 rpm. After washing, streptavidin-PE was added at 50 ul/well and incubated at room temperature for 30 min in a shaker under the same conditions. Finally, after washing, wash buffer (100 ul/well) was added to the plate and incubated in a shaker for 2 min. The Luminex™ 200 setting were set according to the manufacturer's protocol. The data was calculated with a standard five-parameter logistic nonlinear regression analysis of the data (xPonent software 4.2, USA). The levels of cytokine/chemokine are normalized to the live cell counts (1×10^5 cells/mL) and presented as concentrations per mL (pg/mL or ng/mL).

[1] = PBMC + LPS(5 ug/ml) + test article 0.001 uM, Mean
[2] = PBMC + LPS(5 ug/ml) + test article 0.001 uM, single replicates
[3] = PBMC + LPS(5 ug/ml) + test article 0.01 uM, Mean
[4] = PBMC + LPS(5 ug/ml) + test article 0.01 uM, single replicates
[5] = PBMC + LPS(5 ug/ml) + test article 0.1 uM, Mean
[6] = PBMC + LPS(5 ug/ml) + test article 0.1 uM, single replicates
[7] = PBMC + LPS(5 ug/ml) + test article 1 uM, Mean
[8] = PBMC + LPS(5 ug/ml) + test article 1 uM, single replicates
[9] = PBMC + LPS(5 ug/ml) + test article 10 uM, Mean
[10] = PBMC + LPS(5 ug/ml) + test article 10 uM, single replicates
[11] = PBMC + LPS(5 ug/ml) + test article 100 uM, Mean
[12] = PBMC + LPS(5 ug/ml) + test article 100 uM, single replicates
[13] = PBMC + test article 0.01 uM, no LPS, Mean
[14] = PBMC + test article 0.01 uM, no LPS, single replicates
[15] = PBMC + test article 0.1 uM, no LPS, Mean
[16] = PBMC + test article 0.1 uM, no LPS, single replicates
[17] = PBMC + test article 1 uM, no LPS, Mean

CC(C)C[C@H](NC(=O)CNC(=O)[C@H](CC(=O)O)NC(=O)[C@H](CCC(N)=O)NC(=O)CNC(=O)[C@@H]1C[C@@H](O)CN1)C(=O)N[C@@H](C)C(=O)NCC(=O)N1CCC[C@H]1C(=O)N[C@@H](CCCCN)C(=O)O [YY-101] (H-[Hyp]GQDGLAGPK-OH; N-terminus and C-terminus assumed)
Concentration, Bead name: VEGF-A [1]: 3.0 pg/mL
MFI, Bead name: VEGF-A [1]: −0.9
conc/live cell, Bead name: VEGF-A [1]: 0.4 pg/10^5
Concentration, Bead name: VEGF-A [2]: 2.2 pg/mL and 6.1 pg/mL and 0.6 pg/mL
MFI, Bead name: VEGF-A [2]: −1.3 and 0.3 and −1.8
conc/live cell, Bead name: VEGF-A [2]: 0.4 pg/10^5 and 0.9 pg/10^5 and 0.1 pg/10^5
Concentration, Bead name: VEGF-A [3]: 0.6 pg/mL
MFI, Bead name: VEGF-A [3]: −3.1
conc/live cell, Bead name: VEGF-A [3]: 0.0 pg/10^5
Concentration, Bead name: VEGF-A [4]: 0.6 pg/mL
MFI, Bead name: VEGF-A [4]: −1.8 and −3.8 (2×)
conc/live cell, Bead name: VEGF-A [4]: 0.1 pg/10^5 and 0.0 pg/10^5 (2×)
Concentration, Bead name: VEGF-A [5]: 2.6 pg/mL
MFI, Bead name: VEGF-A [5]: −1.1
conc/live cell, Bead name: VEGF-A [5]: 0.4 pg/10^5
Concentration, Bead name: VEGF-A [6]: 3.6 pg/ml (2×) and 0.6 pg/ml
MFI, Bead name: VEGF-A [6]: −0.8 (2×) and −1.8
conc/live cell, Bead name: VEGF-A [6]: 0.6 pg/10^5 (2×) and 0.1 pg/10^5
Concentration, Bead name: VEGF-A [7]: 2.9 pg/mL
MFI, Bead name: VEGF-A [7]: −1.4
conc/live cell, Bead name: VEGF-A [7]: 0.3 pg/10^5
Concentration, Bead name: VEGF-A [8]: 2.2 pg/mL and 3.6 pg/mL
MFI, Bead name: VEGF-A [8]: −2.3 and −1.3 and −0.8
conc/live cell, Bead name: VEGF-A [8]: 0.0 pg/10^5 and 0.3 pg/10^5 and 0.6 pg/10^5
Concentration, Bead name: VEGF-A [9]: 2.7 pg/mL
MFI, Bead name: VEGF-A [9]: −1.1
conc/live cell, Bead name: VEGF-A [9]: 0.4 pg/10^5
Concentration, Bead name: VEGF-A [10]: 2.2 pg/ml (2×) and 3.6 pg/ml
MFI, Bead name: VEGF-A [10]: −1.3 (2×) and −0.8
conc/live cell, Bead name: VEGF-A [10]: 0.4 pg/10^5 and 0.3 pg/10^5 and 0.5 pg/10^5
Concentration, Bead name: VEGF-A [11]: 4.3 pg/mL
MFI, Bead name: VEGF-A [11]: −0.4
conc/live cell, Bead name: VEGF-A [11]: 0.7 pg/10^5
Concentration, Bead name: VEGF-A [12]: 6.1 pg/ml (2×) and 0.6 pg/ml
MFI, Bead name: VEGF-A [12]: 0.3 (2×) and −1.8
conc/live cell, Bead name: VEGF-A [12]: 1.0 pg/10^5 (2×) and 0.1 pg/10^5
Concentration, Bead name: VEGF-A [13]: 8.4 pg/mL
MFI, Bead name: VEGF-A [13]: 1.3
conc/live cell, Bead name: VEGF-A [13]: 1.7 pg/10^5
Concentration, Bead name: VEGF-A [14]: 10.7 pg/mL and 6.1 pg/mL
MFI, Bead name: VEGF-A [14]: 2.3 and 0.3
conc/live cell, Bead name: VEGF-A [14]: 2.1 pg/10^5 and 1.3 pg/10^5
Concentration, Bead name: VEGF-A [15]: 7.3 pg/mL
MFI, Bead name: VEGF-A [15]: 0.8
conc/live cell, Bead name: VEGF-A [15]: 1.4 pg/10^5
Concentration, Bead name: VEGF-A [16]: 6.1 pg/mL and 8.5 pg/mL
MFI, Bead name: VEGF-A [16]: 0.3 and 1.3
conc/live cell, Bead name: VEGF-A [16]: 1.4 pg/10^5 and 1.5 pg/10^5
Concentration, Bead name: VEGF-A [17]: 7.3 pg/mL
MFI, Bead name: VEGF-A [17]: 0.8
conc/live cell, Bead name: VEGF-A [17]: 1.3 pg/10^5
Concentration, Bead name: VEGF-A (PBMC + test article 1 uM, no LPS, single replicates): 8.5 pg/mL and 6.1 pg/mL
